# Experimental data: US20220144853A1, “IMIDAZOLINE DERIVATIVES AS CXCR4 MODULATORS” (Université de Paris, priority 2019, published 2022)
# Counter-ions that a name gives are not always drawn.
# Key:
# [1] = tested on: TNFα production by monocytes (CD14+ cells); experiment: Requirement of CXCR4 (siRNA knockdown or AMD3100) for the effect on TNFα production by monocytes from healthy donors; format: cell-based, human; details: AMD3100 20 μM 1 h, example 1 5 μM or example 2 1 μM, R848, FIG. 5B
# Method: Monocytes were purified from PBMCs by positive selection with the CD14 microbeads (Miltenyi Biotec) and MACS column.
# 1) The PBMCs used herein were prepared as described in part A “immune cells preparation”, section 1) above. PBMCs were seeded at 2.10^6/mL. […] Cells were then stimulated with the TLR7/8 agonist resiquimod—R848 (Invivogen) at 5 μg/mL. When stated, AMD (20 μM) (Sigma-Aldrich, MO, USA) was added to the cells 1 h before incubation with example 1.
# Isolated monocytes were seeded at 10^5 cells/100 μL in 96-well plates and incubated at 37° C. Cyclophilin B (control) and CXCR4 small interfering RNA (siRNA) (Smart Pool, Dharmarcon) was diluted in DOTAP (Roche Applied Sciences). The mix was gently mixed and incubated at room temperature for 15 minutes. After incubation, the mix was added to cells in culture at a final concentration of 160 nM. Finally, cells were incubated at 37° C. for 24 hours before stimulation.
# R848-stimulated PBMCs were washed in PBS and then incubated with a viability stain (Zombie-Aqua, Biolegend) for 30 min at 4° C. After washing, the cells were resuspended in PBS containing 2% FCS and 2 mM EDTA and stained with the extracellular mix using APC-anti-BDCA4 (clone 12C2), FITC-anti-CD123 (clone 6H6), PerCP.cy5.5-anti-CD56 (clone 5.1H11), BV421-anti-HLADR (clone L243), PE.cy7-anti-CD19 (clone 4G7), APC-cy.7-anti-CD14 (clone M5E2) all from Biolegend and used at 1/200 and V500-anti-CD3 (BD Bioscience, clone SP34-2, 1/200). For the TNFα intracellular staining a Fixation/Permeabilization Solution Kit (BD Cytofix/Cytoperm) was used according to the manufacturer's protocol. Briefly, the cells were fixed for 10 min at 4° C. with 100 μL of the Fixation/Permeabilization solution then washed and stained in 100 μL of the BD Perm/Wash Buffer containing TNFα-APC (Miltenyi, 1/500) antibody for 1 h at 4° C. Data acquisition was performed on a Canto II flow cytometer using Diva software (BD Biosciences, San Jose, Calif.). FlowJo software (Treestar, Ashland, Oreg.) was used to analyze data.
# [2] = tested on: IL-18; experiment: Cytokine production by R848-activated PBMCs, LEGENDplex Human Inflammation panel 1: IL-18; format: cell-based; details: Homo sapiens, PBMC, PBMCs from 2 healthy donors, R848 overnight
# Method: (§1) 2) The PBMCs used herein were prepared as described in part A “immune cells preparation”, section 2) above. PBMCs were seeded at 4.10^6/mL. […] Cells were then stimulated with the TLR7/8 agonist resiquimod—R848 (Sigma-Aldrich, MO, USA) at 5 μg/mL.
# (§2) Cytokine expression levels were assessed using LEGENDplex Human inflammation panel 1 Kit (BioLegend, California, USA), which is a bead-based multiplex assay, using fluorescence-encoded beads. […] First, supernatants of R848-stimulated PBMCs were harvested after 24 h of stimulation and frozen at −20° C. for storage. Supernatants were dispensed into a 96-well V-bottom plate. Protocol pursued as per manufacturer recommendations (Manual for BioLegend LEGENDplex, Multi-Analyte Flow Assay Kit, Human Inflammation Panel 1, version 750000393_R01).
# [3] = tested on: IFN production by activated immune cells (PBMC); experiment: IFN production by R848-activated PBMC from healthy donors, STING-37 reporter cell line; format: cell-based, human; details: different concentrations, R848, STING-37 reporter, FIG. 1
# Method: 1) The blood from healthy donors was obtained from two sources. Either from “Etablissement Français du Sang” (convention #07/CABANEL/106), Paris, France or from the Apheresis and Blood Donation Unit at the Institute of Transfusion Medicine and Immunogenetics (IKT), Ulm, Germany after being approved by the Institutional Review Board at Ulm University.
# In vitro experiments were performed using human peripheral blood mononuclear cells (PBMCs) isolated by density centrifugation from peripheral blood leukocyte separation medium (Cambrex, Gaithersburg, Md.).
# PBMCs were cultured in RPMI 1640 (Invitrogen, Gaithersburg, Md.) (R10) containing 10% heat-inactivated fetal bovine serum, 100 U/mL Penicilium and 100 μg/mL Streptomycin (1% Pen-Strep) and 1 mM glutamine (Hyclone, Logan, Utah).
# 1) The PBMCs used herein were prepared as described in part A “immune cells preparation”, section 1) above. PBMCs were seeded at 2.10^6/mL. […]
# 1) To quantify the secretion of functional IFN, a biological assay based on a stable cell line where luciferase reporter gene is controlled by five Interferon-Stimulated Response Elements (STING37 cell line) was used. […] After 24 h of culture, luciferase activity was determined by adding 50 μL of Bright-Glo reagents (Promega) to culture wells and measuring bioluminescence with a luminometer.
# [4] = tested on: IL-10; experiment: Cytokine production by R848-activated PBMCs, LEGENDplex Human Inflammation panel 1: IL-10; format: cell-based; details: Homo sapiens, PBMC, PBMCs from 2 healthy donors, R848 overnight
# Method: as §1, §2
# [5] = tested on: IFN-γ; experiment: Cytokine production by R848-activated PBMCs, LEGENDplex Human Inflammation panel 1: IFN-γ; format: cell-based; details: Homo sapiens, PBMC, PBMCs from 2 healthy donors, R848 overnight
# Method: as §1, §2
# [6] = tested on: IL-23; experiment: Cytokine production by R848-activated PBMCs, LEGENDplex Human Inflammation panel 1: IL-23; format: cell-based; details: Homo sapiens, PBMC, PBMCs from 2 healthy donors, R848 overnight
# Method: as §1, §2
# [7] = tested on: IL-12p70; experiment: Cytokine production by R848-activated PBMCs, LEGENDplex Human Inflammation panel 1: IL-12p70; format: cell-based; details: Homo sapiens, PBMC, PBMCs from 2 healthy donors, R848 overnight
# Method: as §1, §2
smiles,measurement,setting,value
"CC1(C)CN2C(CSC3=NCC(C)(C)N3)=CSC2=N1 [Example 2, 3-(((5,5-dimethyl-4,5-dihydro-1H-imidazol-2-yl)thio)methyl)-6,6-dimethyl-5,6-dihydroimidazo[2,1-b]thiazole dihydrochloride]",TNFα production by activated monocytes in the presence of the example after pre-incubation with AMD3100,[1],restored
same,IC50,[2],13 µM
same,reduction of IFN production by activated PBMCs,[3],100%
same,IC50,[4],9.1 µM
same,IC50,[5],26 µM
same,IC50,[6],4.7 µM
same,IC50,[7],14 µM
